Test results: PubChem BioAssay AID1963439 (Molecular Pharmacology Branch, DTP, NCI, 2024)

Tested on: NCI-H196 complex spheroids with HUVEC/MSC, growth % T/C
Test: Anticancer human tumor NCI-H196 cell line growth inhibition [Asc];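 also: spheroids exposed to compound for 7 days before measurement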;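 as to viability, T/C: 100% = DMSO vehicle control wells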
Details: for IC50: curve of first compound; for viability, T/C: stronger effect = lower value
Summary of the method: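 Complex spheroids combining tumor cells with HUVEC endothelial cells and human MSCs, at 37 degrees C, 5% CO2; agents tested alone or combined, half-log dilutions from at or near clinical Cmax, or 10 microM if Cmax unknown.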

[1] = second compound 0.01 µM, first compound 0.0316 µM
[2] = second compound 0.01 µM, first compound 0.1 µM
[3] = second compound 0.01 µM, first compound 0.316 µM
[4] = second compound 0.01 µM, first compound 1 µM
[5] = second compound 0.01 µM, first compound 3.16 µM
[6] = second compound 0.01 µM, first compound 10 µM
[7] = second compound 0.0316 µM, first compound 0.0316 µM
[8] = second compound 0.0316 µM, first compound 0.1 µM
[9] = second compound 0.0316 µM, first compound 0.316 µM
[10] = second compound 0.0316 µM, first compound 1 µM
[11] = second compound 0.0316 µM, first compound 3.16 µM
[12] = second compound 0.0316 µM, first compound 10 µM
[13] = second compound 0.1 µM, first compound 0.0316 µM
[14] = second compound 0.1 µM, first compound 0.1 µM
[15] = second compound 0.1 µM, first compound 0.316 µM
[16] = second compound 0.1 µM, first compound 1 µM
[17] = second compound 0.1 µM, first compound 3.16 µM
[18] = second compound 0.1 µM, first compound 10 µM
[19] = second compound 0.316 µM, first compound 0.0316 µM
[20] = second compound 0.316 µM, first compound 0.1 µM
[21] = second compound 0.316 µM, first compound 0.316 µM
[22] = second compound 0.316 µM, first compound 1 µM
[23] = second compound 0.316 µM, first compound 3.16 µM
[24] = second compound 0.316 µM, first compound 10 µM
[25] = second compound 1 µM, first compound 0.0316 µM
[26] = second compound 1 µM, first compound 0.1 µM
[27] = second compound 1 µM, first compound 0.316 µM
[28] = second compound 1 µM, first compound 1 µM
[29] = second compound 1 µM, first compound 3.16 µM
[30] = second compound 1 µM, first compound 10 µM

C#Cc1c(F)ccc2cc(O)cc(-c3ncc4c(N5CC6CCC(C5)N6)nc(OCC56CCCN5CC(F)C6)nc4c3F)c12 (stereo not given) + CNC(C)C(=O)NC1CN(S(=O)(=O)c2cccc(S(=O)(=O)N3CCC4CCC(C(=O)NC(c5ccccc5)c5ccccc5)N4C(=O)C(NC(=O)C(C)NC)C3)c2)CCC2CCC(C(=O)NC(c3ccccc3)c3ccccc3)N2C1=O
IC50 (second compound 0.01 µM): < 31.6 nM
IC50 (second compound 0.0316 µM): < 31.6 nM
IC50 (second compound 0.1 µM): < 31.6 nM
IC50 (second compound 0.316 µM): < 31.6 nM
IC50 (second compound 1 µM): < 31.6 nM
viability, T/C [1]: 8.46%
viability, T/C [2]: 8.46%
viability, T/C [3]: 4.34%
viability, T/C [4]: 5.01%
viability, T/C [5]: 4.3%
viability, T/C [6]: 1.48%
viability, T/C [7]: 5.72%
viability, T/C [8]: 5.7%
viability, T/C [9]: 4.82%
viability, T/C [10]: 3.76%
viability, T/C [11]: 4.16%
viability, T/C [12]: 0.96%
viability, T/C [13]: 4.46%
viability, T/C [14]: 3.83%
viability, T/C [15]: 4.97%
viability, T/C [16]: 3.85%
viability, T/C [17]: 3.73%
viability, T/C [18]: 0.77%
viability, T/C [19]: 2.58%
viability, T/C [20]: 2.92%
viability, T/C [21]: 3.31%
viability, T/C [22]: 3.63%
viability, T/C [23]: 2.24%
viability, T/C [24]: 1.04%
viability, T/C [25]: 3.75%
viability, T/C [26]: 2.83%
viability, T/C [27]: 3.86%
viability, T/C [28]: 2.71%
viability, T/C [29]: 2.69%
viability, T/C [30]: 1.34%

C=C(F)C(=O)N1CCN(c2nc(OCC3CCCN3C)nc3c2CCN(c2cccc4cccc(Cl)c24)C3)CC1CC#N (stereo not given) + CNC(C)C(=O)NC1CN(S(=O)(=O)c2cccc(S(=O)(=O)N3CCC4CCC(C(=O)NC(c5ccccc5)c5ccccc5)N4C(=O)C(NC(=O)C(C)NC)C3)c2)CCC2CCC(C(=O)NC(c3ccccc3)c3ccccc3)N2C1=O
IC50 (second compound 0.01 µM): < 31.6 nM
IC50 (second compound 0.0316 µM): < 31.6 nM
IC50 (second compound 0.1 µM): < 31.6 nM
IC50 (second compound 0.316 µM): < 31.6 nM
IC50 (second compound 1 µM): < 31.6 nM
viability, T/C [1]: 7.36%
viability, T/C [2]: 8.05%
viability, T/C [3]: 5.8%
viability, T/C [4]: 3.58%
viability, T/C [5]: 0.83%
viability, T/C [6]: 0.19%
viability, T/C [7]: 3.17%
viability, T/C [8]: 4.55%
viability, T/C [9]: 4.1%
viability, T/C [10]: 3.88%
viability, T/C [11]: 0.38%
viability, T/C [12]: 0.16%
viability, T/C [13]: 4.2%
viability, T/C [14]: 5.22%
viability, T/C [15]: 5.23%
viability, T/C [16]: 3.23%
viability, T/C [17]: 0.27%
viability, T/C [18]: 0.18%
viability, T/C [19]: 4.24%
viability, T/C [20]: 3.28%
viability, T/C [21]: 1.71%
viability, T/C [22]: 2.27%
viability, T/C [23]: 2.27%
viability, T/C [24]: 0.18%
viability, T/C [25]: 3.34%
viability, T/C [26]: 3.4%
viability, T/C [27]: 2.52%
viability, T/C [28]: 1.53%
viability, T/C [29]: 0.35%
viability, T/C [30]: 0.24%

Cc1nc(N2CCC3(CC2)COC(C)C3N)c(CO)nc1Sc1ccnc(N)c1Cl (stereo not given) + CNC(C)C(=O)NC1CN(S(=O)(=O)c2cccc(S(=O)(=O)N3CCC4CCC(C(=O)NC(c5ccccc5)c5ccccc5)N4C(=O)C(NC(=O)C(C)NC)C3)c2)CCC2CCC(C(=O)NC(c3ccccc3)c3ccccc3)N2C1=O
IC50 (second compound 0.01 µM): < 9.49 nM
IC50 (second compound 0.0316 µM): < 9.49 nM
IC50 (second compound 0.1 µM): < 9.49 nM
IC50 (second compound 0.316 µM): < 9.49 nM
IC50 (second compound 1 µM): < 9.49 nM
viability, T/C (second compound 0.01 µM, first compound 0.00949 µM): 11%
viability, T/C (second compound 0.01 µM, first compound 0.03 µM): 7.94%
viability, T/C (second compound 0.01 µM, first compound 0.0949 µM): 5.15%
viability, T/C (second compound 0.01 µM, first compound 0.3 µM): 6.8%
viability, T/C (second compound 0.01 µM, first compound 0.949 µM): 6.64%
viability, T/C (second compound 0.01 µM, first compound 3 µM): 6.64%
viability, T/C (second compound 0.0316 µM, first compound 0.00949 µM): 4.39%
viability, T/C (second compound 0.0316 µM, first compound 0.03 µM): 3.45%
viability, T/C (second compound 0.0316 µM, first compound 0.0949 µM): 4.36%
viability, T/C (second compound 0.0316 µM, first compound 0.3 µM): 3.89%
viability, T/C (second compound 0.0316 µM, first compound 0.949 µM): 4.66%
viability, T/C (second compound 0.0316 µM, first compound 3 µM): 4.54%
viability, T/C (second compound 0.1 µM, first compound 0.00949 µM): 3.47%
viability, T/C (second compound 0.1 µM, first compound 0.03 µM): 3.41%
viability, T/C (second compound 0.1 µM, first compound 0.0949 µM): 4.81%
viability, T/C (second compound 0.1 µM, first compound 0.3 µM): 3.67%
viability, T/C (second compound 0.1 µM, first compound 0.949 µM): 3.69%
viability, T/C (second compound 0.1 µM, first compound 3 µM): 3.62%
viability, T/C (second compound 0.316 µM, first compound 0.00949 µM): 3.86%
viability, T/C (second compound 0.316 µM, first compound 0.03 µM): 6.04%
viability, T/C (second compound 0.316 µM, first compound 0.0949 µM): 2.84%
viability, T/C (second compound 0.316 µM, first compound 0.3 µM): 2.59%
viability, T/C (second compound 0.316 µM, first compound 0.949 µM): 3.03%
viability, T/C (second compound 0.316 µM, first compound 3 µM): 3.1%
viability, T/C (second compound 1 µM, first compound 0.00949 µM): 4.12%
viability, T/C (second compound 1 µM, first compound 0.03 µM): 2.58%
viability, T/C (second compound 1 µM, first compound 0.0949 µM): 2.94%
viability, T/C (second compound 1 µM, first compound 0.3 µM): 2.39%
viability, T/C (second compound 1 µM, first compound 0.949 µM): 2.12%
viability, T/C (second compound 1 µM, first compound 3 µM): 1.83%
